Legend:
mOR-I7 [1] = target: T1, mOR-I7 (Mus musculus, UniProt Q9QWU6); assay: Novel olfactory functional assay (CCBSA), microplate calcium flux (Fluo4, FDSS) on HEK 293T overexpressing mOR-I7; assay type: cell-based; details: for hit / potential ligand of mOR-I7 in screening of 30 odorants: carrier fraction 4 (bOBP and BSA) incubated with 16 μl of 1M odorant, ratio mOR-I7 on Wt, standardized to 1 mM ATP
T1 construct: expressed in transfected cells; host or cells: HEK 293T
T1 sequence (Q9QWU6 1-327): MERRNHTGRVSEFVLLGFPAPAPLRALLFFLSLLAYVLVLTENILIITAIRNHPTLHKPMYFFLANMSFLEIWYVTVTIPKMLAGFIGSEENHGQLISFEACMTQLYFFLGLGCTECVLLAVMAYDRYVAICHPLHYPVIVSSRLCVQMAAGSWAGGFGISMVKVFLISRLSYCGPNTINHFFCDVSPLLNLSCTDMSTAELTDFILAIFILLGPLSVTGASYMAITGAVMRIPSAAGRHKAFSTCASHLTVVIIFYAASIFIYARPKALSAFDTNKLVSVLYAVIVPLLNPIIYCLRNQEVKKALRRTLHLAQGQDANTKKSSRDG
Protocol: A solution of BP including SA, OBP and/or olfactory mucus (see concentration in the text) was incubated in the presence of odorant in a sealed flask for 16 hours at 4° C. (FIG. 3A). Such incubated-BP solution was then used as tested complex on olfactory receptor-expressing cells. Prior to incubation with such complex, cells were incubated for 1 hour with 4 μM Fluo4-AM (Molecular Probe) in the presence of 1 mM probenecid, and then rinsed twice with Fluo4-AM free HBSS buffer. After injection of odorant-BP complex on OR expressing cells, calcium flux was followed by measuring fluorescence at 520 nm ([…]) on FDSS, a plate reader from Hamamatsu Photonics K.K. (Japan) at 25° C.
In an attempt to be closer to physiological process of olfaction and thereof to increase specificity and sensitivity of the cell-based assay described above, a novel olfactory functional assay was developed. Most of the time, mammalian smells volatile odorant molecules. However in the cell-based assay described above as in most cell-based assays, odorant molecules were injected into aqueous buffer. Such injection may lead to formation of micelles that can alter efficacy and specificity of ligands. Therefore a cell-based assay was developed focusing an a better solubilization of odorants. In summary, in a sealed flask, bovine olfactory mucus was incubated in the presence of an odorant (FIG. 3A). It was hereby tested if an odorant would be trapped and solubilized in that fluid. Thereafter, such solubilized odorant was injected onto cultured-cells overexpressing an olfactory receptor. Activation of this receptor could then be followed by conventional assay including fluorescent (FIGS. 3 B and C) and luminescent calcium assays.
For this novel assay, mOR-I7 activation was assessed by octanal. A constant volume of olfactory mucus was incubated in the presence of increasing amount of octanal ranging from 0 to 16 μl of a solution of 1M octanal. After 16 hours incubation at 4° C., bovine olfactory mucus was injected on HEK 293T overexpressing mOR-I7. Calcium flux was followed with Fluo4 on FDSS, a plate reader from Hamamatsu Photonics K.K. (Japan).
Capacity of fraction 4 to fulfil the role of odorant solubilizator was assessed in the newly proposed assay. Screening of 30 odorant molecules (FIG. 5A) was performed on HEK 293T wild type (FIG. 5C) or overexpressing mOR-I7 (FIG. 5B). Fraction 4 was incubated overnight at 4° C. […] These odorants led to at least one fold more activation of HEK 293T overexpressing mOR-I7 than the wild type counterpart. They can be classified into two groups. One group (FIG. 5 E (a) to (e)) gathers molecules that fit the olfactophore 1 depicted in FIG. 5 E (j). They are schematically made of 2 electronegative poles distanced by 6 carbons. They all contain a 6-8 carbon chain ended by an electronegative group as depicted by olfactophore 2 represented in FIG. 5 E (k).
However this fraction 4 contained two major proteins, bOBP and BSA. Thus the results of said Example could in this approach not rule out any implication of BSA into fraction 4 properties. Therefore the capacity of BSA to solubilize and thereof to enhance the efficacy of odorants in the novel cell based olfactory functional assay as described by the present invention has been tested. To be as close as possible to BSA concentration observed in fraction 4. BSA concentration was set up at 5×10^−6 M for the following experiments (marked by an arrow on FIG. 6 G). Fraction 4 and a solution of fatty acid-free BSA were incubated at 4° C. for 16 hours in the presence of increasing volume of 1M octanal. So-incubated solutions were then applied onto HEK 293T wt or overexpressing mOR-I7. Calcium-flux was followed on a plate reader (Hamamatsu Photonics K.K., Japan) with fluo4 as fluorescent dye (FIG. 6 A to F). […] Such phenomenon is usually observed in such fluorescence assay when increasing ligand concentrations are injected. […]

mOR-I7 [2] = target: T1, mOR-I7; assay: cAMP level immunoassay (TROPIX) in the novel assay on HEK 293T overexpressing mOR-I7; assay type: cell-based; details: BSA solution incubated with 16 μl of 1 M odorant; 20 minutes incubation
Protocol: Similarly to the first step of the fluorescence-based functional assay described above, BP solutions including SA, OBP and/or olfactory mucus (see concentration in the text) were incubated in the presence of odorant in a sealed flask for 16 hours at 4° C. (FIG. 3A). Such odorant-BP complexes were then applied to cultured-cell for 20 minutes at 37° C. cAMP level was then measured using the Tropix kit according to the manufacturer procedures (Applied Biosystem).
As depicted in FIG. 1, binding of odorant molecule to olfactory receptor triggers a cascade of molecular events. In the most commonly accepted pathway, the first second messenger is cAMP synthesized by adenylate cyclase type III. Therefore, a mean to test olfactory receptor activation is to assess variation of cellular cAMP pool after olfactory receptor activation. It is noteworthy that such assay could be performed in parallel to calcium flux assay described above to validate hits obtained during a screening.
Specificity of the novel cell based olfactory functional assay according to the present invention was tested following mOR-I7 activation after injection of these three odorants and two non related odorant, vanilline and piperonyl isobutyrate. Olfactory receptor activation was detected by cellular cAMP pool immunoassay. A solution of BSA was incubated overnight at 4° C.
As discussed above (FIG. 1), activation of olfactory receptor can also be followed through cAMP synthesis. […] Results are expressed as percent of response observed after incubation with 100 μM forskolin, an activator of adenylate cyclases. […] Scheme of the odorant molecules are depicted in FIG. 7E.

mOR-I7 [3] = target: T1, mOR-I7; details: literature (references); cited from earlier work
[4] = fraction 4 or BSA solution incubated with increasing volume of 1M octanal

hits / potential ligands of mOR-I7 through the 4 screenings (mOR-I7 [1]; BSA as carrier, calcium flux and cAMP screenings together): hits
ligands of mOR-I7 in two independent calcium flux screenings of 30 odorants (mOR-I7 [1]; BSA as carrier, standardized to 100 μM ATP): consistent
fluorescence intensity (calcium flux) (mOR-I7 [1]; bovine olfactory mucus incubated with 0 to 16 μl of 1M octanal, 16 hours 4° C.): proportional to the volume of odorant
hit / potential ligand of mOR-I7 in screening of 30 odorants (mOR-I7 [1]): potential ligands of mOR-I7
hit / potential ligand of mOR-I7 in screening of 30 odorants (mOR-I7 [1]; listed as 1-octanal): hits
calcium flux in HEK 293T overexpressing mOR-I7 (mOR-I7 [1]; fraction 4 or BSA solution (5×10^−6 M) incubated with increasing volume of 1M octanal, kinetics over 300 seconds): calcium flux was detected
dependence of fluorescence intensity on amount of odorant (mOR-I7 [1]; [4]): proportional to the amount of odorant
time required to reach maximum fluorescence (mOR-I7 [1]; [4]): decreased when odorant volume increased
mOR-I7 activation by cellular cAMP pool (mOR-I7 [2]): mOR-I7 ligands
SMILES: CCCCCCCC=O [octanal]
known activation of mOR-I7 (mOR-I7 [3]): activated specifically

Source: patent US20090136968A1, “Novel in vitro methods for studying receptors recognizing volatile compounds” (Chemcom S. A., priority 2005, published 2009)
